Data: US4118585A, “Anionic benzene tetrakis carbonylimino isophthalic acid salts” (priority 1977, dated 1978)

Tests used:
activated human C1 = experiment: Test, Code 026 (C1 inhibitor); type: biochemical; conditions: serial two-fold dilution assay; higher well number indicates higher activity
Text: (§1) An active inhibitor protects C2 from C1 and C4; (ii) Test, Code 035 (C3-C9 inhibitor) -- This test determines the ability of the late components of human complement (C3-C9) to lyse EAC 142 in the presence of appropriate dilutions of the test compound. An active inhibitor protects EAC 142 from lysis by human C3-C9; (iii) Test, Code 036 (C-Shunt inhibitor) -- In this test human erythrocytes rendered fragile are lysed in autologous serum via the shunt pathway activated by cobra venom factor in the presence of appropriate dilutions of the test compound. Inhibition of the shunt pathway results in failure of lysis; (iv) Forssman Vasculitis Test -- Here, the well known complement dependent lesion, Forssman vasculitis, is produced in guinea pigs by intradermal injection of rabbit anti-Forssman antiserum. […]

[1] = system: shunt pathway activated by cobra venom factor; experiment: Test, Code 036 (C-Shunt inhibitor); type: cell-based; conditions: serial two-fold dilution assay; fragile human erythrocytes in autologous serum
Text: as §1

[2] = system: late components of human complement (C3-C9); experiment: Test, Code 035 (C3-C9 inhibitor); type: biochemical; parameters: key: N=Negative; conditions: serial two-fold dilution assay; lysis of EAC 142 by human C3-C9
Text: as §1

SMILES: O=C([O-])c1cc(NC(=O)c2cc(C(=O)Nc3cc(C(=O)[O-])cc(C(=O)[O-])c3)c(C(=O)Nc3cc(C(=O)[O-])cc(C(=O)[O-])c3)cc2C(=O)Nc2cc(C(=O)[O-])cc(C(=O)[O-])c2)cc(C(=O)[O-])c1.[Na+].[Na+].[Na+].[Na+].[Na+].[Na+].[Na+].[Na+] [5,5',5",5'"-[1,2,4,5-Benzenetetrayltetrakis(carbonylimino)]-tetraisophthalic acid octasodium salt]
- Cl 026 Wells (activated human C1): +7 Wells
- Shunt Inhibition 036 Wells [1]: +3 Wells
- C-Late 035 Wells [2]: N
